In the supplement of paper PMC11061612:

Legend:
[1] = compound: C1CN(CCC1(C(=O)N[C@@H](CCO)C2=CC=C(C=C2)Cl)N)C3=NC=NC4=C3C=CN4 [Capivasertib]; details: max 10 µM
Summary of the method: (§1)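 Cancer cell lines in 1536-well plates (7.5 μl DMEM/F12 or RPMI, 10% FBS) were held 24 hours at 37°C and 5% CO2 and then dosed for 72 hours at a final DMSO of typically 0.2%. Viability was taken from CellTiter-Glo 2.0 luminescence, scaled between blank-well and DMSO-well means. Curves were fitted as two-parameter logistic models with a non-linear mixed effects model, from which the single-agent IC50 was taken.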

[2] = compound: C=CCn1c(=O)c2cnc(Nc3ccc(N4CCN(C)CC4)cc3)nc2n1-c1cccc(C(C)(C)O)n1 [AZD1775]; details: max 3 µM
Summary of the method: as §1

[3] = compound: CC(=O)Nc1cccc(-n2c(=O)n(C3CC3)c(=O)c3c(Nc4ccc(I)cc4F)n(C)c(=O)c(C)c32)c1 [Trametinib]; details: max 1 µM
Summary of the method: as §1

[4] = compound: CC(=O)c1c(C)c2cnc(Nc3ccc(N4CCNCC4)cn3)nc2n(C2CCCC2)c1=O [Palbociclib]; details: max 10 µM
Summary of the method: as §1

[5] = compound: CC(C)n1c(=O)n(C)c2cnc3cc(F)c(-c4ccc(OCCCN5CCCCC5)nc4)cc3c21 [AZD1390]; details: max 0.3 µM
Summary of the method: as §1

[6] = compound: CC1(C)CCC(CN2CCN(c3ccc(C(=O)NS(=O)(=O)c4ccc(NCC5CCOCC5)c([N+](=O)[O-])c4)c(Oc4cnc5[nH]ccc5c4)c3)CC2)=C(c2ccc(Cl)cc2)C1 [Venetoclax]; details: max 1 µM
Summary of the method: as §1

[7] = compound: CC1=C(C(=CC=C1)Cl)NC(=O)C2=CN=C(S2)NC3=CC(=NC(=N3)C)N4CCN(CC4)CCO [Dasatinib]; details: max 2 µM
Summary of the method: as §1

[8] = compound: CC1=CN2[C@@H](C1)C=NC3=CC(=C(C=C3C2=O)OC)OCCCCCOC4=C(C=C5C(=C4)N=C[C@@H]6CC(=CN6C5=O)C)OC [SG3199]; details: max 0.001 µM
Summary of the method: as §1

[9] = compound: CCN(CCO)CCCOc1ccc2c(Nc3cc(CC(=O)Nc4cccc(F)c4)[nH]n3)ncnc2c1 [AZD2811]; details: max 1 µM
Summary of the method: as §1

[10] = compound: CCc1c2c(nc3ccc(O)cc13)-c1cc3c(c(=O)n1C2)COC(=O)[C@]3(O)CC [SN-38]; details: max 0.3 µM
Summary of the method: as §1

[11] = compound: CN(C)CCCOc1ccc(-c2ccc3ncc4c(c3c2)n(C2CCOCC2)c(=O)n4C)cn1 [AZD0156]; details: max 3 µM
Summary of the method: as §1

[12] = compound: CN(CC[C@H](CSC1=CC=CC=C1)NC2=C(C=C(C=C2)S(=O)(=O)NC(=O)C3=CC=C(C=C3)N4CCC(CC4)[C@H](C5=CC=CC=C5C6=CC=C(C=C6)Cl)O)S(=O)(=O)C(F)(F)F)CCO [AZD4320]; details: max 1 µM
Summary of the method: as §1

[13] = compound: COc1cc(Nc2ncc3c(n2)-c2ccc(Cl)cc2C(c2c(F)cccc2OC)=NC3)ccc1C(=O)O [Alisertib]; details: max 10 µM
Summary of the method: as §1

[14] = compound: COc1cc2ncnc(Nc3ccc(F)c(Cl)c3)c2cc1OCCCN1CCOCC1 [Gefitinib]; details: max 10 µM
Summary of the method: as §1

[15] = compound: COc1cccc(OCCCN)c1-c1cc(Nc2cnc(C#N)cn2)n[nH]1 [Prexasertib]; details: max 1 µM
Summary of the method: as §1

[16] = compound: COc1cccc2c1C(=O)c1c(O)c3c(c(O)c1C2=O)C[C@@](O)(C(=O)CO)C[C@@H]3O[C@H]1C[C@H](N)[C@H](O)[C@H](C)O1 [Doxorubicin]; details: max 1 µM
Summary of the method: as §1

[17] = compound: COc1nnc2ccc(N3CCC(c4ccc(OCCN5CCN(C)C(=O)[C@H]5C)cc4)CC3)nn12 [AZD5153]; details: max 1 µM
Summary of the method: as §1

[18] = compound: CS(=O)(=O)CCNCc1ccc(-c2ccc3ncnc(Nc4ccc(OCc5cccc(F)c5)c(Cl)c4)c3c2)o1 [Lapatinib]; details: max 10 µM
Summary of the method: as §1

[19] = compound: C[C@@H](Nc1cc(F)cc(F)c1)c1cc(C(=O)N(C)C)cc2c(=O)cc(N3CCOCC3)oc12 [AZD8186]; details: max 3 µM
Summary of the method: as §1

[20] = compound: C[C@@H](Oc1cc(-c2cnn(C3CCNCC3)c2)cnc1N)c1c(Cl)ccc(F)c1Cl [Crizotinib]; details: max 10 µM
Summary of the method: as §1

[21] = compound: C[C@@H](c1ccc2nccn2c1)n1nnc2ncc(-c3cnn(C)c3)nc21 [Savolitinib]; details: max 1 µM
Summary of the method: as §1

[22] = compound: C[C@@H]1COCCN1C2=NC(=NC(=C2)C3(CC3)[S@](=N)(=O)C)C4=C5C=CNC5=NC=C4 [AZD6738]; details: max 10 µM
Summary of the method: as §1

[23] = compound: Cc1c2c(nn1C)CSCc1cc(n(C)n1)CSc1cc(c3ccccc3c1)OCCCc1c(C(=O)O)n(C)c3c-2c(Cl)ccc13 [AZD5991]; details: max 1 µM
Summary of the method: as §1

[24] = compound: Cc1cc2ncnn2cc1Nc1ncc2c(n1)n(C1CCOCC1)c(=O)n2C [AZD7648]; details: max 10 µM
Summary of the method: as §1

[25] = compound: Cc1nc(-c2cn3c(n2)-c2ccc(-c4cnn(C(C)(C)C(N)=O)c4)cc2OCC3)n(C(C)C)n1 [Taselisib]; details: max 10 µM
Summary of the method: as §1

[26] = compound: Cn1cnc2c(F)c(Nc3ccc(Br)cc3Cl)c(C(=O)NOCCO)cc21 [Selumetinib]; details: max 10 µM
Summary of the method: as §1

[27] = compound: NC1(c2ccc(-c3nc4ccn5c(=O)[nH]nc5c4cc3-c3ccccc3)cc2)CCC1 [MK-2206]; details: max 10 µM
Summary of the method: as §1

[28] = compound: O=C(c1cc(Cc2n[nH]c(=O)c3ccccc23)ccc1F)N1CCN(C(=O)C2CC2)CC1 [Olaparib]; details: max 10 µM
Summary of the method: as §1

| Cell Line | IC50, cell viability 72 h [1] | IC50, cell viability 72 h [2] | IC50, cell viability 72 h [3] | IC50, cell viability 72 h [4] | IC50, cell viability 72 h [5] | IC50, cell viability 72 h [6] | IC50, cell viability 72 h [7] | IC50, cell viability 72 h [8] | IC50, cell viability 72 h [9] | IC50, cell viability 72 h [10] | IC50, cell viability 72 h [11] | IC50, cell viability 72 h [12] | IC50, cell viability 72 h [13] | IC50, cell viability 72 h [14] | IC50, cell viability 72 h [15] | IC50, cell viability 72 h [16] | IC50, cell viability 72 h [17] | IC50, cell viability 72 h [18] | IC50, cell viability 72 h [19] | IC50, cell viability 72 h [20] | IC50, cell viability 72 h [21] | IC50, cell viability 72 h [22] | IC50, cell viability 72 h [23] | IC50, cell viability 72 h [24] | IC50, cell viability 72 h [25] | IC50, cell viability 72 h [26] | IC50, cell viability 72 h [27] | IC50, cell viability 72 h [28] |
| --- | --- | --- | --- | --- | --- | --- | --- | --- | --- | --- | --- | --- | --- | --- | --- | --- | --- | --- | --- | --- | --- | --- | --- | --- | --- | --- | --- | --- |
| ASH-3 (Thyroid Gland Carcinoma) | > 10 µM | > 3 µM | > 1 µM | > 10 µM | > 0.3 µM | > 1 µM | 1.24 µM | > 0.001 µM | > 1 µM | 0.0288 µM | > 3 µM | > 1 µM | > 10 µM | > 10 µM | 0.569 µM | 0.688 µM | 0.283 µM | > 10 µM | > 3 µM | > 10 µM | > 1 µM | > 10 µM | > 1 µM | > 10 µM | 6.86 µM | > 10 µM | > 10 µM | > 10 µM |
| KU-19-19 (Bladder Carcinoma) | > 10 µM | 0.462 µM | 0.00644 µM | > 10 µM | > 0.3 µM | > 1 µM | 0.711 µM | > 0.001 µM | > 1 µM | 0.0416 µM | > 3 µM | > 1 µM | 5.63 µM | > 10 µM | 0.0361 µM | 0.447 µM | 0.117 µM | > 10 µM | > 3 µM | > 10 µM | > 1 µM | 2.16 µM | > 1 µM | > 10 µM | > 10 µM | 0.678 µM | > 10 µM | > 10 µM |
| KYSE-50 (Esophageal Squamous Cell Carcinoma) | > 10 µM | 1.82 µM | > 1 µM | > 10 µM | > 0.3 µM | > 1 µM | 0.263 µM | > 0.001 µM | > 1 µM | > 0.3 µM | > 3 µM | > 1 µM | 3.86 µM | > 10 µM | 0.108 µM | > 1 µM | 0.664 µM | > 10 µM | > 3 µM | > 10 µM | > 1 µM | 8.94 µM | > 1 µM | > 10 µM | 8.39 µM | > 10 µM |  | > 10 µM |
| KYSE-150 (Esophageal Squamous Cell Carcinoma) | > 10 µM | 1.15 µM | 0.498 µM | > 10 µM | > 0.3 µM | > 1 µM | > 2 µM | > 0.001 µM | > 1 µM | 0.117 µM | > 3 µM | > 1 µM | 5.85 µM | > 10 µM | > 1 µM | 0.158 µM | 0.42 µM | 3.19 µM | > 3 µM | 4.28 µM | > 1 µM | > 10 µM | > 1 µM | > 10 µM | 1.34 µM | > 10 µM | > 10 µM | > 10 µM |
| LOU-NH91 (Squamous Cell Lung Carcinoma) | > 10 µM | 1.35 µM | > 1 µM | > 10 µM | > 0.3 µM | > 1 µM | 0.657 µM | > 0.001 µM | > 1 µM | 0.0171 µM | > 3 µM | > 1 µM | > 10 µM | > 10 µM | > 1 µM | 0.542 µM | 0.239 µM | > 10 µM | > 3 µM | > 10 µM | > 1 µM | > 10 µM | > 1 µM | > 10 µM | 5.87 µM | > 10 µM |  | > 10 µM |
| MFE-319 (Endometrial Carcinoma) | > 10 µM | 0.74 µM | > 1 µM | > 10 µM | > 0.3 µM | > 1 µM | > 2 µM | > 0.001 µM | > 1 µM | > 0.3 µM | > 3 µM | > 1 µM | > 10 µM | > 10 µM | 0.0515 µM | > 1 µM | > 1 µM | > 10 µM | > 3 µM | > 10 µM | > 1 µM | 4.51 µM | > 1 µM | > 10 µM | 9.92 µM | > 10 µM | > 10 µM | > 10 µM |
| NCI-H322M (Lung Adenocarcinoma) | > 10 µM | 0.349 µM | 0.156 µM | > 10 µM | > 0.3 µM | > 1 µM | 1.96 µM | > 0.001 µM | > 1 µM | 0.0987 µM | > 3 µM | > 1 µM | > 10 µM | 0.816 µM | 0.0106 µM | 0.735 µM | 0.742 µM | 7.36 µM | > 3 µM | > 10 µM | > 1 µM | 1.13 µM | > 1 µM | > 10 µM | 0.692 µM | 2.89 µM |  | > 10 µM |
